ChEMBL document CHEMBL6153034, “Synthesis of dolutegravir derivatives modified by 1,2,3-triazole structure and their anti-inflammatory activity in LPS-induced BV2 cells” (Bioorg Med Chem Lett, 2025)
The source made the active and inactive calls.

How the values were obtained:
[1] = Acute toxicity in female Kunming mouse assessed as histopathological changes in heart at 250 mg/kg administered via gavage by H and E staining based analysis; format: organism-based; conditions: in vivo, po
[2] = Acute toxicity in male Kunming mouse assessed as histopathological changes in liver at 250 mg/kg administered via gavage by H and E staining based analysis; format: organism-based; conditions: in vivo, po
[3] = Cytotoxicity against mouse BV-2 cells assessed as cell viability at 10 uM by MTT assay relative to control; format: toxicity, cell-based; conditions: read-out: Activity
[4] = tested on: BV-2; assay: Antiinflammatory activity in LPS induced mouse BV-2 cells assessed as inhibition of NO production by Griess reagent based assay; format: functional, cell-based
[5] = tested on: BV-2; assay: Antiinflammatory activity in LPS induced mouse BV-2 cells assessed as downregulation of IL-6 mRNA expression level preincubated for 2 hrs followed by LPS addition and measured after 24 hrs by qRT-PCR analysis; format: functional, cell-based; conditions: dose 5-10 µM, time 26.0 hrs
[6] = tested on: BV-2; assay: Antiinflammatory activity in LPS-induced mouse BV-2 cells assessed as downregulation of iNOS mRNA expression level at 5 to 10 uM preincubated for 2 hrs followed by LPS addition and measured after 6 hrs by qRT-PCR analysis; format: functional, cell-based; conditions: dose 5-10 µM, time 8.0 hrs
[7] = tested on: BV-2; assay: Antiinflammatory activity in LPS-induced mouse BV-2 cells assessed as downregulation of COX2 mRNA expression level at 5 to 10 uM preincubated for 2 hrs followed by LPS addition and measured after 6 hrs by qRT-PCR analysis; format: functional, cell-based; conditions: dose 5-10 µM, time 8.0 hrs
[8] = tested on: BV-2; assay: Antiinflammatory activity in LPS-induced mouse BV-2 cells assessed as downregulation of iNOS protein expression level preincubated for 2 hrs followed by LPS addition and measured after 24 hrs by Western blot analysis; format: functional, cell-based; conditions: dose 5-10 µM, time 26.0 hrs
[9] = molecular target: T1, Signal transducer and activator of transcription 1 (Mus musculus) (UniProt P42225); assay: Inhibition of STAT1 phosphorylation at Tyr701 residue in LPS-induced mouse BV-2 cells at 5 to 10 uM preincubated for 2 hrs followed by LPS addition and measured after 3 hrs by Western blot analysis; format: cell-based; conditions: dose 5-10 µM, time 5.0 hrs
T1 sequence (whole entry): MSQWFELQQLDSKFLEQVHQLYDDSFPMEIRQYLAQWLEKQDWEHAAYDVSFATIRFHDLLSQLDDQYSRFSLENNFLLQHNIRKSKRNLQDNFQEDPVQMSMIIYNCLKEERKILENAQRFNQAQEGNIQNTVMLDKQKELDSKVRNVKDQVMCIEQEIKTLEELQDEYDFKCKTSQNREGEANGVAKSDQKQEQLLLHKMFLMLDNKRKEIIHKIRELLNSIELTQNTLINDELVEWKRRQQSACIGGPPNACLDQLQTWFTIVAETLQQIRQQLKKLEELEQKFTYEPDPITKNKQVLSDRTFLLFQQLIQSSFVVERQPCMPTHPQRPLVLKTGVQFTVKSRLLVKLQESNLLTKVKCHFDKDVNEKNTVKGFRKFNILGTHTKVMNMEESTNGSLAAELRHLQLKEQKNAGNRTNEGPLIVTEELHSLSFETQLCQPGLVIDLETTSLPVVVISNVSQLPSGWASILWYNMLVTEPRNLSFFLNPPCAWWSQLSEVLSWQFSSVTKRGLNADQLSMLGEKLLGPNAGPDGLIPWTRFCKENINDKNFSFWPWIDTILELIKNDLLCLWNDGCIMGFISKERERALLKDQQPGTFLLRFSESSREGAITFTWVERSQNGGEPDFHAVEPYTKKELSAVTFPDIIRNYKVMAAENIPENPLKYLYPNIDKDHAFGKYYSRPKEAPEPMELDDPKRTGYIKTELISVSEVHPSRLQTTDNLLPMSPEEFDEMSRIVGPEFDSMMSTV

[10] = tested on: BV-2; assay: Inhibition of LPS-induced nuclear translocation of p-STAT3 in mouse BV-2 cells at 10 uM preincubated for 2 hrs followed LPS addition and measured after 3 hrs by DAPI staining based immunofluorescence assay; format: functional, cell-based; conditions: time 5.0 hrs
[11] = tested on: BV-2; assay: Inhibition of LPS-induced nuclear translocation of p-STAT1 in mouse BV-2 cells at 10 uM preincubated for 2 hrs followed LPS addition and measured after 3 hrs by DAPI staining based immunofluorescence assay; format: functional, cell-based; conditions: time 5.0 hrs
[12] = tested on: BV-2; assay: Inhibition of LPS-induced nuclear translocation of p-STAT1 in mouse BV-2 cells at 10 uM preincubated for 2 hrs followed LPS addition and measured after 3 hrs by Western blot analysis; format: functional, cell-based; conditions: time 5.0 hrs
[13] = tested on: BV-2; assay: Inhibition of LPS-induced nuclear translocation of p-STAT3 in mouse BV-2 cells at 10 uM preincubated for 2 hrs followed LPS addition and measured after 3 hrs by Western blot analysis; format: functional, cell-based; conditions: time 5.0 hrs
[14] = Acute toxicity in male Kunming mouse assessed as effect on body weight at 250 mg/kg administered via gavage for 14 days; format: organism-based; conditions: in vivo, po, 336 h, time 14 day
[15] = Acute toxicity in male Kunming mouse assessed as effect on organ coefficient of heart at 250 mg/kg administered via gavage; format: organism-based; conditions: in vivo, po
[16] = Acute toxicity in male Kunming mouse assessed as effect on organ coefficient of lung at 250 mg/kg administered via gavage; format: organism-based; conditions: in vivo, po
[17] = Acute toxicity in male Kunming mouse assessed as effect on organ coefficient of liver at 250 mg/kg administered via gavage; format: organism-based; conditions: in vivo, po
[18] = Acute toxicity in female Kunming mouse assessed as effect on organ coefficient of heart at 250 mg/kg administered via gavage; format: organism-based; conditions: in vivo, po
[19] = Acute toxicity in female Kunming mouse assessed as effect on organ coefficient of spleen at 250 mg/kg administered via gavage; format: organism-based; conditions: in vivo, po
[20] = Acute toxicity in male Kunming mouse assessed as histopathological changes in heart at 250 mg/kg administered via gavage by H and E staining based analysis; format: organism-based; conditions: in vivo, po
[21] = Acute toxicity in female Kunming mouse assessed as histopathological changes in liver at 250 mg/kg administered via gavage by H and E staining based analysis; format: organism-based; conditions: in vivo, po
[22] = Acute toxicity in female Kunming mouse assessed as histopathological changes in spleen at 250 mg/kg administered via gavage by H and E staining based analysis; format: organism-based; conditions: in vivo, po
[23] = Acute toxicity in female Kunming mouse assessed as histopathological changes in lung at 250 mg/kg administered via gavage by H and E staining based analysis; format: organism-based; conditions: in vivo, po
[24] = Acute toxicity in female Kunming mouse assessed as effect on GPT level in blood at 250 mg/kg administered via gavage by biochemical analysis; format: organism-based; conditions: in vivo, po
[25] = Acute toxicity in female Kunming mouse assessed as effect on GOT level in blood at 250 mg/kg administered via gavage by biochemical analysis; format: organism-based; conditions: in vivo, po
[26] = Acute toxicity in male Kunming mouse assessed as increase in GPT level in blood at 250 mg/kg administered via gavage by biochemical analysis; format: organism-based; conditions: in vivo, po
[27] = tested on: BV-2; assay: Antiinflammatory activity in LPS induced mouse BV-2 cells assessed as NO production at 1 uM by Griess reagent based assay relative to control
[28] = tested on: BV-2; assay: Antiinflammatory activity in LPS induced mouse BV-2 cells assessed as NO production at 10 uM by Griess reagent based assay relative to control

COc1c2n(cc(C(=O)Nc3cccc(-c4cn(-c5ccccc5Cl)nn4)c3)c1=O)C[C@@H]1OCC[C@@H](C)N1C2=O
71%: level, % of control at 1 µM [27]
86.7%: viability at 10 µM [3]
43%: level, % of control at 10 µM [28]
active: Activity [5] Dose-dependent-effect | Activity [6] | Activity [7] | Activity [8] Dose-dependent-effect | inhibition [9] | inhibition [10] | inhibition [11] | inhibition [12] | inhibition [13]
4.45 µM: IC50 [4]
Toxic: Activity [26]
Non-toxic: Activity [1] | Activity [2] | Activity [14] | Activity [15] | Activity [16] | Activity [17] | Activity [18] | Activity [19] | Activity [20] | Activity [21] | Activity [22] | Activity [23] | Activity [24] | Activity [25]
